# Data as given in PubChem BioAssay (NCI).
#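 Protocol summary: plate cells (96-well), add compound at 5 concentrations, incubate 48 h, interpolate endpoints linearly. Here, GI50 denotes the concentration required for 50% inhibition of growth. TGI denotes the concentration required for complete inhibition of growth.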
# Key:
# Test in all cases: NCI anticancer screen, dose series, 48 h
# [1] = system: HOP-92 NSCLC
# [2] = system: SNB-19 CNS
# [3] = system: NCI-H522 lung
# [4] = system: IGROV1 ovarian
# [5] = system: NCI/ADR-RES ovarian
# [6] = system: NCI-H460 lung
# [7] = system: ACHN renal
# [8] = system: UACC-257 melanoma
# [9] = system: M14 melanoma
# [10] = system: DMS 273 small cell lung
# [11] = system: BT-549 breast
Compound,TGI [1],TGI [2],TGI [3],TGI [4],TGI [5],TGI [6],TGI [7],TGI [8],TGI [9],TGI [10],GI50 [2],GI50 [3],GI50 [4],GI50 [5],GI50 [6],GI50 [8],GI50 [9],GI50 [1],GI50 [11],TGI [11]
CN1C[C@H]2[C@@H](C1=O)[C@H](c1ccccc1)ON2C,> 100 µM,> 100 µM,> 100 µM,> 100 µM,> 100 µM,> 100 µM,> 100 µM,> 100 µM,> 100 µM,–,–,–,–,–,–,–,–,–,–,–
CC(=O)O[C@H]1C=CC(=O)C(C)CC1C (some centres not stated),> 100 µM,> 100 µM,> 100 µM,> 100 µM,–,> 100 µM,> 100 µM,> 100 µM,> 100 µM,> 100 µM,–,–,–,–,–,–,–,–,–,–
COc1ccc(-c2nn(-c3cccc(NC(=O)Nc4ccccc4)c3)cc2-c2ccncc2)cc1Cl,–,> 100 µM,7.22 µM,8.02 µM,8.26 µM,4.48 µM,–,6.33 µM,4.85 µM,–,2.83 µM,2.5 µM,2.73 µM,2.81 µM,2.06 µM,2.5 µM,2.26 µM,–,–,–
Fc1ccc(-c2nn3c(-c4cc(C(F)(F)F)cc(C(F)(F)F)c4)nnc3s2)cc1,3.93 µM,> 50 µM,> 50 µM,> 50 µM,> 50 µM,> 50 µM,–,–,> 50 µM,–,1.57 µM,2.3 µM,1.66 µM,2.95 µM,1.62 µM,–,> 50 µM,1.22 µM,> 50 µM,> 50 µM
C=C1C(=O)O[C@@H]2[C@H]1CCC(C)=C1C=CC(=O)[C@]12C,18.5 µM,71.8 µM,6.96 µM,46.7 µM,–,35.1 µM,30 µM,27.1 µM,–,41.1 µM,–,–,–,–,–,–,–,–,–,–
CC(=O)C=NCC(=O)O,> 100 µM,> 100 µM,> 100 µM,> 100 µM,> 100 µM,> 100 µM,> 100 µM,> 100 µM,> 100 µM,–,–,–,–,–,–,–,–,–,–,> 100 µM
O=C(Nc1ccc(Sc2ccc(N=Nc3c(O)c(S(=O)(=O)O)cc4cc(S(=O)(=O)O)ccc34)cc2)cc1)c1ccc(N=Nc2c(O)ccc3c(S(=O)(=O)O)cc(S(=O)(=O)O)cc23)cc1,> 100 µM,> 100 µM,40.2 µM,> 100 µM,–,> 100 µM,> 100 µM,> 100 µM,66.2 µM,> 100 µM,–,–,–,–,–,–,–,–,–,–
c1ccc(N=c2nc(N3CCOCC3)ss2)cc1,36.3 µM,> 100 µM,25.3 µM,52.7 µM,–,34.7 µM,30.9 µM,29.8 µM,27.9 µM,31.4 µM,–,–,–,–,–,–,–,–,–,–
N#CC(Nc1cccc(C(F)(F)F)c1)c1ccccc1C(F)(F)F (configuration not stated),–,31.9 µM,17.1 µM,38.1 µM,–,29.9 µM,27.6 µM,27.7 µM,17.6 µM,21.1 µM,–,–,–,–,–,–,–,–,–,–
CCC(=O)NC(Nc1cccc(F)c1)(C(F)(F)F)C(F)(F)F,> 100 µM,> 100 µM,> 100 µM,> 100 µM,> 100 µM,> 100 µM,> 100 µM,> 100 µM,> 100 µM,–,–,–,–,–,–,–,–,–,–,> 100 µM
